The source of these data is patent US7365069B2, “Pyrimidone derivatives” (Bexel Pharmaceuticals Inc., priority 2002, dated 2008).

In one series the test system is NCI-H460. Put plainly: DTP human tumor cell line one-dose prescreen, NCI-H460. Type of series: cell-based. As to conditions: 48 hours, Alamar Blue, test/control, read-out: Percentage growth Lung NCI-H460. The procedure: (§1) DTP Human Tumor Cell Line Screen
(§2) Methodology of the In Vitro Cancer Screen
(§3) The current assay utilizes a 384 well plate format and fluorescent staining technologies resulting in greater screening capacity for testing of synthetic samples.
(§4) The cell lines of the cancer-screening panel are grown in RPMI 1640 medium containing 5% fetal bovine serum and 2 mM L-glutamine. For a typical screening experiment, cells are inoculated into 96 well microtiter plates in 100 μL. After cell inoculation, the microtiter plates are incubated at 37° C., 5% CO2, 95% air and 100% relative humidity for 24 h prior to addition of experimental drugs. The cells are plated a densities of 5000 cells/well (MCF7), 1000 cells/well (NC1—H460), and 7500 cells/well (SF-268) to allow for varying doubling time of the cell lines. Each plate contains all three cell lines, a series of dilutions of standard agents, total kill wells and appropriate controls. Plates are incubated under standard conditions for 24 hours prior to addition of experimental compounds or extracts.
(§5) Addition of Experimental Agents (Pure Compounds)
(§6) Experimental compounds are solubilized in dimethyl sulfoxide (DMSO) at 400-times the desired maximum test concentration (maximum final DMSO concentration of 0.25%) and stored frozen. Compounds are then diluted with complete media with 0.1% gentamicin sulfate (5 μl of test sample in 100% DMSO is added to 565 μl of complete medium). 20 μl of this solution is then dispensed into test wells containing 50 μl of cell suspension to yield a test concentration of 1.00E-04M.
(§7) Two standard drugs, meaning that their activities against the cell lines are well documented, are tested against each cell line: NSC 19893 (5-FU) and NSC 123127 (Adriamycin).
(§8) After compound addition, plates are incubated at standard conditions for 48 hours, 10 μl/well Alamar Blue is added and the plates are incubated for an additional 4 hours. Fluorescence is measured using an excitation wavelength of 530 nm and an emission wavelength of 590 nm.
(§9) Calculation of Percent Test Cell Growth/Control (Untreated) Cell Growth (T/C)
(§10) Percent growth is calculated on a plate-by-plate basis for test wells relative to control wells. Percent Growth is expressed as the ratio of fluorescence of the test well to the average fluorescence of the control wells x 100.
(In general: Resazurin is reduced to fluorescent resorufin, in cell work by metabolically active cells.)

Another series deals with MCF-7. Put plainly: DTP human tumor cell line one-dose prescreen, MCF-7. Type of series: cell-based. The note with it: MCF7, 48 hours, Alamar Blue, test/control, read-out: Percentage growth Breast MCF-7. The procedure: as §1, §2, §3, §4, §5, §6, §7, §8, §9, §10
For the next series, the system named is SF-268. Kind of series: DTP human tumor cell line one-dose prescreen, SF-268. As to conditions: 48 hours, Alamar Blue, test/control, read-out: Percentage growth CNS SF-268. Type of series: cell-based. The procedure: as §1, §2, §3, §4, §5, §6, §7, §8, §9, §10
A further series concerns IL-6. Kind of series: IL-6 production in LPS-stimulated human whole blood. Type of series: cell-based. As to conditions: LPS 4 h. The procedure:
This assay determines the effect of test compounds on the production of IL-6 from human whole blood. Compounds are tested for their ability to downregulate the production of IL-6 in activated whole blood. The test compounds are pre-incubated for 15 minutes at 37° C. and then stimulated with Lipopolysaccharide (Salmonella abortus equi, 1 μg/ml) for 4 h at 37° C. in 5% CO2. The levels of Interleukin-6 are estimated using Enzyme linked Immunosorbent assay performed in a 96 well format as per the procedure of the manufacturer (Cayman Chemical, Ann Arbor, USA).

In the next series the target is T1, COX-2 (Homo sapiens, UniProt P35354).
T1 construct: incubation of human blood with lipopolysaccharide (LPS), which induces COX-2 production in the blood; endogenous in cells; host or cells: fresh human whole blood from volunteers, treated with aspirin and then LPS
T1 sequence (P35354 18-604): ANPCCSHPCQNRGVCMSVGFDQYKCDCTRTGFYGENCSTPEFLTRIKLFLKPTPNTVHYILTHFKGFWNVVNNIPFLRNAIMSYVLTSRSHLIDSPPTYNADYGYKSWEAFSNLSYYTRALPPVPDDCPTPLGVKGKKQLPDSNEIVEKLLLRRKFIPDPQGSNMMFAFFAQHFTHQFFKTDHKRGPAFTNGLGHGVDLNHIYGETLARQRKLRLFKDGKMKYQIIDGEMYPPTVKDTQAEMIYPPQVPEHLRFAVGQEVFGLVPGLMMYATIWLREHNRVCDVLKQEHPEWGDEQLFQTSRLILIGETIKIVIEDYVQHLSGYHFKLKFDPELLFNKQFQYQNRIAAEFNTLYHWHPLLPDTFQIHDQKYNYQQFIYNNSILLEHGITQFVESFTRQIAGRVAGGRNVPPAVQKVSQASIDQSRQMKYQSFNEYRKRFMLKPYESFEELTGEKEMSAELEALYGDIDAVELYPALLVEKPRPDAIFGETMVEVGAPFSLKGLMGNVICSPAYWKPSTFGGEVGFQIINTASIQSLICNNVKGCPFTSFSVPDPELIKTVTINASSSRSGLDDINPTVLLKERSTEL
Kind of series: Human whole blood assay, COX-2 inhibition (PGE2 ELISA after LPS). Type of series: cell-based. The note with it: LPS 24 h. The procedure:
In Vivo Evaluation of Cyclooxygenase-2 (COX-2) Inhibition Activity
The COX-2 inhibition activities of the compounds illustrated in the examples are determined by the following method.
Human whole blood provides a protein and cell rich milieu appropriate for the study of biochemical efficacy of anti-inflammatory compounds such as selective COX-2 inhibitors. […] This is correlating with the observation that COX-2 inhibitors have no effect on prostaglandin E2 (PGE2) production in normal blood. These inhibitors are active only after incubation of human blood with lipopolysaccharide (LPS), which induces COX-2 production in the blood.
Fresh blood is collected in tubes containing potassium EDTA by vein puncture from make volunteers. The subjects should have no apparent inflammatory conditions and not taken NSAIDs for at least 7 days prior to blood collection. Blood is treated with aspirin in vitro (10 μg/ml, at time zero) to inactivate COX-1, and then with LPS (10 μg/ml) along with test agents or vehicle. The blood is incubated for 24 h at 37° C., after which the tubes are centrifuged, the plasma is separated and stored at −80° C. (J. Pharmacol. Exp. Ther, 271, 1705, 1994; Proc. Natl. Acad. Sci. USA., 96, 7563, 1999). The plasma is assayed for PGE2 using Cayman ELISA kit as per the procedure outlined by the manufacturer (Cayman Chemicals, Ann Arbor, USA).
On the technique in general: In an ELISA, binding on a coated surface is turned into a signal by an enzyme label.

The test system of another series is TNF-α. Kind of series: TNF-α production in LPS-stimulated human whole blood. Type of series: cell-based. As to conditions: 1 μM, LPS 4 h. The procedure: Tumor Necrosis Factor Alpha (TNF-α)
This assay determines the effect of test compounds on the production of TNF-α in human whole blood. TNF-α assay is carried out as described by Armin hatzelmann and Christian Schudt (J Pharm Exp Ther 297, 261, 2001). Compounds are tested for their ability to inhibit the activity of TNF-α in human whole blood. The test compounds are pre-incubated for 15 minutes at 37° C. and then stimulated with Lipopolysaccharide (Salmonella abortus equi, 1 μg/ml) for 4 h at 37° C. in 5% CO2. The levels of TNF-α are estimated using Enzyme linked Immunosorbent assay performed in a 96 well format as per the procedure of the manufacturer (Cayman Chemical, Ann Arbor, USA).

One may read the melting point as the temperature of the solid-liquid transition. Broadly, the inhibition is the change of the read-out against control, counted positive when it falls. High values mean strong suppression, low ones little suppression.

SMILES strings stand for the structures.

Consider `CSc1ccc(-n2c(-c3ccncc3)nc(SC)c(C#N)c2=O)cc1` [Example 28, 5-cyano-4-(methylthio)-1-[4-(methylthio)phenyl]-6-oxo-2-pyridin-4-yl-1,6-dihydropyrimidine], for which the melting point was 227 to 229 °C. For the same compound, in the series on NCI-H460, the activity at 100 µM amounted to 20%. Also, the activity at 100 µM in the series with MCF-7 worked out at 48%. In the series with SF-268, the activity at 100 µM was 63%.

On to `CSc1nc(-c2ccccn2)n(-c2ccc(F)cc2)c(=O)c1C#N` [Example 29, 5-cyano-1-(4-fluorophenyl)-4-(methylthio)-6-oxo-2-pyridin-2-yl-1,6-dihydropyrimidine], for which the melting point lay within 221 to 227 °C. Further, the activity at 100 µM in the series with NCI-H460 was 23%. The activity at 100 µM with MCF-7 is 80%. Besides, the activity at 100 µM with SF-268 was 92%.

For the compound `CCOC(=O)c1c(SC)nc(-c2ccc(SC)cc2)n(-c2ccc(C)cc2)c1=O` [Example 41, ethyl 1-(4-methylphenyl)-4-(methylthio)-2-[4-(methylthio)phenyl]-6-oxo-1,6-dihydropyrimidine-5-carboxylate], the melting point lay in the range of 153 to 155 °C. In addition, 10 µM produced 21.9% inhibition in the series on IL-6 (10 μM). The activity at 100 µM with NCI-H460 came out at 86%. Besides, in the series on MCF-7, the activity at 100 µM was 85%. The activity at 100 µM with SF-268 stood at 89%.

`CSc1ccc(-c2nc(SC)c(C(=O)O)c(=O)n2-c2ccc(C)cc2)cc1` [Example 8, 5-carboxy-2-[(4-methylthio)phenyl]-4-(methylthio)-1-(4-methylphenyl)-6-oxo-1,6-dihydropyrimidine]: the melting point fell in the range of 173 to 175 °C. On COX-2, this compound returned an inhibition at 1 µM of 40.1%. In the series with IL-6, this compound displayed an inhibition at 1 µM of 69.4%. The activity at 100 µM in the series on NCI-H460 amounted to 51%. In addition, the activity at 100 µM in the series on MCF-7 was determined as 77%. The activity at 100 µM in the series with SF-268 was 89%.

The compound `CSc1ccc(-c2nc(SC)c(C#N)c(=O)n2-c2ccc(Cl)cc2)cc1` [Example 18, 1-(4-chlorophenyl)-5-cyano-4-(methylthio)-2-[4-(methylthio)phenyl]-6-oxo-1,6-dihydropyrimidine] gave a melting point of 203 to 205 °C. Moreover, 1 µM produced 35.7% inhibition in the series with TNF-α. In the series with IL-6 (100 μM), this compound came in with an inhibition at 100 µM of 44.8%. Further, the activity at 100 µM with NCI-H460 worked out at 98%. Also, in the series with MCF-7, the activity at 100 µM was 89%. In the series on SF-268, the activity at 100 µM was determined as 86%.

`CSc1ccc(-n2c(-c3ccccc3)nc(SC)c(C#N)c2=O)cc1` [Example 3, 5-cyano-2-phenyl-4-(methylthio)-1-[4-(methylthio)phenyl]-6-oxo-1,6-dihydropyrimidine] returned a melting point of 204 to 205 °C. Besides, in the series on IL-6 (0.25 μM), 0.25 µM produced 11.3% inhibition. Moreover, in the series with NCI-H460, the activity at 100 µM came to 30%. In addition, in the series with MCF-7, the activity at 100 µM stood at 82%. In the series with SF-268, the activity at 100 µM was 90%.

With `CCOc1ccc(-n2c(-c3ccc(SC)cc3)nc(SC)c(C#N)c2=O)cc1` [Example 21, 5-cyano-1-(4-ethoxyphenyl)-4-(methylthio)-2-[4-(methylthio)phenyl]-6-oxo-1,6-dihydropyrimidine], the melting point fell in the range of 209 to 213 °C. Further, testing at 0.25 µM at COX-2 (0.25 μM) gave an inhibition of 7.79%. In addition, the inhibition at 1 µM with TNF-α was 46.6%. The inhibition at 1 µM in the series with IL-6 is 17.3%. The activity at 100 µM in the series with NCI-H460 worked out at 92%. In addition, in the series on MCF-7, the activity at 100 µM is 84%. In the series on SF-268, the activity at 100 µM was 91%.

As for `CSc1nc(-c2cccnc2)n(-c2ccc(F)cc2)c(=O)c1C#N` [Example 26, 5-cyano-1-(4-fluorophenyl)-4-(methylthio)-6-oxo-2-pyridin-3-yl-1,6-dihydropyrimidine], the melting point lay within 190 to 193 °C. In the series on TNF-α, this compound returned an inhibition at 1 µM of 30.6%. Also, the activity at 100 µM in the series on NCI-H460 is 79%. The activity at 100 µM in the series on MCF-7 came out at 74%. For the same compound, in the series on SF-268, the activity at 100 µM was found to be 99%.

For `CSc1ccc(-n2c(-c3ccccn3)nc(SC)c(C#N)c2=O)cc1` [Example 30, 5-cyano-4-(methylthio)-1-[4-(methylthio)phenyl]-6-oxo-2-pyridin-2-yl-1,6-dihydropyrimidine], the melting point was in the range of 158 to 161 °C. Moreover, on COX-2, the inhibition at 1 µM was 14.9%. Further, the activity at 100 µM with NCI-H460 came to 27%. For the same compound, the activity at 100 µM in the series with MCF-7 worked out at 38%. Moreover, the activity at 100 µM in the series on SF-268 is 86%.
